{"source": "patent US12605382B2", "about": "“Pharmaceutical composition for preventing, alleviating, or treating cancer containing 2,6-dichloro-4-(4-(4-hydroxycyclohexylamino)-7H- pyrrolo[2,3-d]pyrimidin-5-yl)phenol as active ingredient” (JBKLAB CO., LTD., priority 2021, dated 2026)", "assay_in_all_cases": "Immunocytochemistry (IHC) analysis of tumor tissue, 4T1 allograft model", "format_in_all_cases": "in vivo, BALB/c mice", "key": {"CD68+ macrophages": {"tested_on": "CD68+ macrophages", "description": "(§1) In order to evaluate changes in the expression of proteins such as BRD4 and HIF-1α, the tumor cells isolated in Example 10 were subjected to immunocytochemistry (IHC) analysis to evaluate the changes in protein expression in the tumor microenvironment according to the treatment method.\n(§2) Specifically, tumor tissue was extracted, fixed in 4% paraformaldehyde, and embedded in paraffin to create blocks. The paraffin block containing the tissue was sliced transversely to a thickness of 4 μm and attached to a slide. Paraffin was removed from the tissue attached to the slide using xylene and ethanol, and endogenous peroxidase was removed from the tissue by immersing the slide in a solution of 3% H2O2 in methanol for 10 minutes at room temperature. Then, for antigen retrieval, the slide was placed in 0.01 M sodium citrate buffer (pH 6.0) and boiled. In order to eliminate non-specific binding, FcR on the cell surface was blocked using 5% normal goat serum. Then, the slide was incubated overnight at 4° C. with primary antibodies (HIF-1a (SantaCruz, sc-13515), PD-L1 (Abcam, ab2025921), CD8 (Abcam, ab203035), and CD68 (CellSignaling, 97778)). Secondary antibodies were attached and color development was induced using ImmPRESSGoat Anti-Rat IgG (Mouse Adsorbed) Polymer kit (Vector Laboratories), Abcam (ab150165, ab150081), and REAL En Visiondetection system (Dako). The stained tissue was observed under an Axioskop40 optical microscope (Carl Zeiss) at 40× magnification, and the images were saved using AxioVision4.7 software. The expression level was measured through the area of the stained region in the photograph using Image J software (NIH, Bethesda). Average density values were calculated from at least three slides per sample."}, "Brd4": {"tested_on": "Brd4", "description": "as §1, §2"}, "HIF-1α": {"tested_on": "HIF-1α", "description": "as §1, §2"}, "CD8+ T cells": {"tested_on": "CD8+ T cells", "description": "as §1, §2"}, "PD-L1": {"tested_on": "PD-L1", "description": "as §1, §2"}}}
{"smiles": "Oc1c(Cl)cc(-c2c[nH]c3ncnc(N[C@H]4CC[C@H](O)CC4)c23)cc1Cl", "note": "[Example 1, (trans)-2,6-dichloro-4-(4-(4-hydroxycyclohexylamino)-7H-pyrrolo[2,3-d]pyrimidin-5-yl)phenol]", "values": [{"measurement": "population of CD68+ macrophages in tumor tissue", "setting": "CD68+ macrophages", "value": "significantly (P<0.01) reduced"}, {"measurement": "Brd4 expression in tumor tissue", "setting": "Brd4", "value": "significantly (P<0.001) reduced"}, {"measurement": "HIF-1α expression in tumor tissue", "setting": "HIF-1α", "value": "significantly (P<0.05) reduced"}, {"measurement": "population of CD8+ T cells", "setting": "CD8+ T cells; alone", "value": "increased"}, {"measurement": "population of CD8+ T cells", "setting": "CD8+ T cells; combined with radiation", "value": "further increased (synergistic effect)"}, {"measurement": "expression of PD-L1", "setting": "PD-L1", "value": "significantly (P<0.01) decreased"}]}
